Assay results as given in EP4772530A1, “PEPTIDE TARGETING SOMATOSTATIN RECEPTOR, DRUG CONJUGATE AND USE THEREOF” (Mainline Biosciences (Shanghai) Co., Ltd., priority 2023, dated 2025).
pEC50: −log10 of the molar value. Several values for one entry are separate records, joined by “and”; a condition that tells them apart may be missing. Equal entries are not always repeated. Structures can show the parent of a compound that is named as a salt. *1 amine or outer side, *2 acyl side, *3 side chain or, on linkers, in order; H or OH if unused. Where a SMILES comes first, the peptide text is derived from it. Bridges are numbered along the chain shown (N, C = ends). Roman numbers before positions name the chains, in order. [ ]: non-standard residue; d: D form. The star is where a group is joined. Hexanoyl(6-succinimido-3yl) = O=C1CC([*:1])C(=O)N1CCCCCC(=O)[*:2]; Dolaproine = CO[C@@H]([C@@H]1CCCN1)[C@@H](C)C(=O)O; Dil = CC[C@H](C)[C@H](NC)[C@@H](CC(=O)O)OC; PABC = O=C(OCc1ccc(N[*:1])cc1)[*:2]; PEG6 = NCCOCCOCCOCCOCCOCCOCCC(=O)O; X2 = C[C@@H](N*)[C@@H](O)c1ccccc1; Cit = NC(=O)NCCC[C@H](N)C(=O)O; NMeV = CN[C@H](C(=O)O)C(C)C; AEEA = NCCOCCOCC(=O)O

Tests used:
SSTR2 = molecular target: T1, SSTR2 (Homo sapiens, UniProt P30874); experiment: SSTR2 cAMP test; type: cell-based; conditions: for pEC50: SSTR2/CHO cells, Forskolin, cAMP activation rate; for activity at 50 µM: Max Dose 50000 nM
T1 construct: expressed in transfected cells; host or cells: CHO cells (SSTR2/CHO)
Protocol: • 1) Compound preparation: The test compound was diluted by 4-fold with DMSO to obtain 10 different concentration points. Approximately 100 nL of the diluted compound was then transferred to a cell reaction plate and centrifuged for later use. • 2) Cell preparation:The cultured SSTR2/CHO cells were collected into a sterile centrifuge tube, and the supernatant was discarded by centrifugation. • 3) The cells were resuspended in assay buffer, counted using a Vi-cell counter, and diluted with assay buffer. • 4) Approximately 100 nL of 100 µM Forskolin was transferred into the cell reaction plate using an Echo and centrifuged. Then, 10 µL of assay buffer containing the cells was added and incubated. • 5) Approximately 10 µL of cAMP detection reagent solution was added to the corresponding wells of the cell reaction plate, and incubated at room temperature in the dark. • 6) The plate was read using a microplate reader. The final value was determined as the ratio of OD at 665 nm to that at 615 nm. • 7) The cAMP value was calculated for each well: Activity (%)=(signal value of sample well - mean signal value of low-signal control wells)/ (mean signal value of high-signal control wells - mean signal value of low-signal control wells). Fitting was performed using the "Nonlinear regression (curve fit)-log(agonist) vs. response -- Variable slope" model in GraphPad Prism 5.0, with the log-transformed compound concentration on the x-axis and cAMP activation rate on the y-axis. The EC50 value of the sample was calculated accordingly. Table 2: SSTR2 cAMP Test Results

[1] = tested on: Human multiple myeloma MM.1S cells; experiment: EX3.3 in vivo pharmacodynamics, MM.1S subcutaneous xenograft model; parameters: species or system CB17 SCID mice; conditions: for Tumor Volume (Mean ± SEM): Ixazomib Citrate 4 mg/kg, Oral Gavage, Twice Weekly
Protocol: Human multiple myeloma MM.1S cells were suspended and cultured in vitro in 1640 medium containing 10% fetal bovine serum, 100 U/mL penicillin, and 100 µg/mL streptomycin in a 5% CO2 incubator at 37°C. The suspended cells were collected by centrifugation twice a week and adherent cells were digested with trypsin-EDTA to prepare a cell suspension for subculture. When the cell saturation was 80%-90% and the cell number reached the requirement, the cells were collected, counted, and inoculated.
CB17 SCID mice, female, 6-8 weeks old, weighing 18-22 g, provided by Zhejiang Vital River Laboratory Animal Technology Co., Ltd.
Each mouse was subcutaneously injected with 100 µL of PBS containing 5×10^6 MM.1S cells + 100 µL of Matrigel (final volume: 200 µL) at the axilla of the right forelimb. At 20 days after injection, when the average tumor volume reached 109 mm^3, mice were grouped for dosing (vehicle control,Ixazomib Citrate, and Example 1 treatment groups, with 6 animals per group). The Ixazomib Citrate group was orally administered by gavage (4 mg/kg) twice a week; the vehicle control group (5%DMSO + 95% normal saline) and the Example 1 treatment group (1.75 mg/kg) were slowly intravenously injected for about 30 seconds each time, twice a week.
The experimental indicators were used to investigate whether tumor growth was inhibited, delayed, or cured. The tumor diameter was measured twice a week using a vernier caliper. The tumor volume was calculated as follows: V = 0.5a×b^2, where a and b were the long and short diameters of the tumor, respectively.
The anti-tumor efficacy of the drug was evaluated based on TGI (%) or relative tumor proliferation rate T/C (%). TGI (%) was the tumor growth inhibition rate. TGI (%) was calculated as follows: TGI (%)=[(1 -(mean tumor volume at the end of dosing in a certain treatment group - mean tumor volume at the start of dosing in the treatment group))/ (mean tumor volume at the end of dosing in the vehicle control group - mean tumor volume at the start of dosing in the vehicle control group)]× 100%.
T/C (%) was calculated as follows:T/C (%)= TRTV/ CRTV× 100 %. Based on the results of tumor measurement, the relative tumor volume (RTV) was calculated as follows: RTV = Vt/V0, where V0 was the mean tumor volume measured at the time of grouping (i.e. d0), and Vt was the mean tumor volume at a certain measurement. Data on the same day were taken for TRTV and CRTV.
Tumor weights were measured at the end of the experiment and T/Cweight was calculated, where Tweight and Cweight were tumor weights in the treatment and vehicle control groups, respectively.
Statistical analysis, including the mean and standard error (SEM) of tumor volume at each time point in each group (see Table 5-1 in Section 5.2 for specific data), was performed to evaluate differences between groups based on data from the treatment group on Day 18 post-dose at the end of the experiment. A t-test was used for comparison between two groups, and one-way ANOVA was used for comparison among three or more groups. If there was a significant difference in F value, the Games-Howell method was used for testing; if there was no significant difference in F value, the Dunnet (2-sided) method was used for analysis. All data were analyzed using SPSS 17.0.

[2] = 18 days after the start of dosing, Ixazomib Citrate 4 mg/kg oral gavage twice a week

T1 sequence (P30874 whole entry): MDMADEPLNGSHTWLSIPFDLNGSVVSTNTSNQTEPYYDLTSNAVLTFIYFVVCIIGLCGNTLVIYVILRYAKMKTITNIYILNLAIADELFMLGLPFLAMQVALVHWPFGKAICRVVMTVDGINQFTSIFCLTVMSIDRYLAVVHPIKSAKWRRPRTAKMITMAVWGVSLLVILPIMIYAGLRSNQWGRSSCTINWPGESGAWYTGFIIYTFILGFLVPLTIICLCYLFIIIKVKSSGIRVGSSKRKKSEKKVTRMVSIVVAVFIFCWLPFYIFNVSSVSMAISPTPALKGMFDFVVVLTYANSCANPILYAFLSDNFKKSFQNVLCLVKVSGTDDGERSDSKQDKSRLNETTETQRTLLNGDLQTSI

CC(C)C[C@H](NC(=O)[C@H](CCCNC(=N)N)NC(=O)[C@@H](N)CCCNC(=N)N)C(=O)N[C@@H](Cc1ccccc1)C(=O)N[C@H]1CSSC[C@@H](C(=O)N[C@H](C(=O)N[C@@H](Cc2c[nH]c3ccccc23)C(=O)N[C@@H](CCCNC(=N)N)C(=O)N[C@@H](CC(=O)O)C(N)=O)[C@@H](C)O)NC(=O)[C@H]([C@@H](C)O)NC(=O)[C@H](CCCCN)NC(=O)[C@@H](Cc2c[nH]c3ccccc23)NC(=O)[C@H](Cc2ccc(O)cc2)NC1=O [SEQ ID No. 1, H-Arg-Arg-Leu-Phe-[Cys-Tyr-D-Trp-Lys-Thr-Cys]-Thr-Trp-Arg-Asp-NH2] (H-RRLFCY[dW]KTCTWRD-NH2; disulfide 5-10)
activity at 100 µM (SSTR2; Max Dose 100000 nM): 98%
pEC50 (SSTR2): 6.66

CC[C@H](C)[C@@H]([C@@H](CC(=O)N1CCC[C@H]1[C@H](OC)[C@@H](C)C(=O)N[C@H](C)[C@@H](O)c1ccccc1)OC)N(C)C(=O)[C@@H](NC(=O)[C@H](C(C)C)N(C)C(=O)OCc1ccc(NC(=O)[C@H](CCCNC(N)=O)NC(=O)[C@@H](NC(=O)CCCCCN2C(=O)CC(SC[C@H](NC(C)=O)C(=O)NCCOCCOCCOCCOCCOCCOCCC(=O)N[C@@H](CCCNC(=N)N)C(=O)N[C@@H](CCCNC(=N)N)C(=O)N[C@@H](CC(C)C)C(=O)N[C@@H](Cc3ccccc3)C(=O)N[C@H]3CSSC[C@@H](C(=O)N[C@H](C(=O)N[C@@H](Cc4c[nH]c5ccccc45)C(=O)N[C@@H](CCCNC(=N)N)C(=O)N[C@@H](CC(=O)O)C(N)=O)[C@@H](C)O)NC(=O)[C@H]([C@@H](C)O)NC(=O)[C@H](CCCCN)NC(=O)[C@@H](Cc4c[nH]c5ccccc45)NC(=O)[C@H](Cc4ccc(O)cc4)NC3=O)C2=O)C(C)C)cc1)C(C)C (stereo partly drawn) [Example 3, Ac-Cys(MC-Val-Cit-PABC-MMAE)-PEG6-Arg-Arg-Leu-Phe-[Cys-Tyr-D-Trp-Lys-Thr-Cys]-Thr-Trp-Arg-Asp-NH2] (I: Ac-C[PEG6]RRLFCY[dW]KTCTWRD-NH2 / II: V[Cit][PABC][NMeV]V[Dil][Dolaproine]-X2; linker I:1-II:N via Hexanoyl(6-succinimido-3yl); disulfide I:7-I:12)
activity at 50 µM (SSTR2): 95.4%
pEC50 (SSTR2): 6.25

C[C@@H](O)[C@@H]1NC(=O)[C@H](CCCCN)NC(=O)[C@H](Cc2c[nH]c3ccccc23)NC(=O)[C@H](Cc2ccccc2)NC(=O)[C@H](Cc2ccccc2)NC(=O)[C@H](CC(N)=O)NC(=O)[C@H](CCCCN)NC(=O)[C@@H](NC(=O)[C@@H]2CCCN2)CSSC[C@@H](C(=O)N[C@@H](CCCCN)C(=O)O)NC(=O)[C@H](CO)NC(=O)[C@H](CO)NC(=O)[C@H](Cc2ccccc2)NC1=O [Cortistatin14, reference compound] (H-PCKNFFWKTFSSCK-OH; disulfide 2-13)
activity at 1 µM (SSTR2; Max Dose 1000 nM): 99.7%
pEC50 (SSTR2): 8.86

CC[C@H](C)[C@@H]([C@@H](CC(=O)N1CCC[C@H]1[C@H](OC)[C@@H](C)C(=O)N[C@H](C)[C@@H](O)c1ccccc1)OC)N(C)C(=O)[C@@H](NC(=O)[C@H](C(C)C)N(C)C(=O)OCc1ccc(NC(=O)[C@H](CCCNC(N)=O)NC(=O)[C@@H](NC(=O)CCCCCN2C(=O)CC(SC[C@H](NC(C)=O)C(=O)NCCOCCOCC(=O)NCCOCCOCC(=O)NCCOCCOCC(=O)N[C@@H](CCCNC(=N)N)C(=O)N[C@@H](CCCNC(=N)N)C(=O)N[C@@H](CC(C)C)C(=O)N[C@@H](Cc3ccccc3)C(=O)N[C@H]3CSSC[C@@H](C(=O)N[C@H](C(=O)N[C@@H](Cc4c[nH]c5ccccc45)C(=O)N[C@@H](CCCNC(=N)N)C(=O)N[C@@H](CC(=O)O)C(N)=O)[C@@H](C)O)NC(=O)[C@H]([C@@H](C)O)NC(=O)[C@H](CCCCN)NC(=O)[C@@H](Cc4c[nH]c5ccccc45)NC(=O)[C@H](Cc4ccccc4)NC3=O)C2=O)C(C)C)cc1)C(C)C (stereo partly drawn) [Example 8, Ac-Cys(MC-Val-Cit-PABC-MMAE)-AEEA-AEEA-AEEA-Arg-Arg-Leu-Phe-[Cys-Phe-D-Trp-Lys-Thr-Cys]-Thr-Trp-Arg-Asp-NH2] (I: Ac-C[AEEA][AEEA][AEEA]RRLFCF[dW]KTCTWRD-NH2 / II: V[Cit][PABC][NMeV]V[Dil][Dolaproine]-X2; linker I:1-II:N via Hexanoyl(6-succinimido-3yl); disulfide I:9-I:14)
activity at 50 µM (SSTR2): 98.4%
pEC50 (SSTR2): 6.39

CC(C)C[C@H](NC(=O)[C@H](CCCNC(=N)N)NC(=O)[C@@H](N)CCCNC(=N)N)C(=O)N[C@@H](Cc1ccccc1)C(=O)N[C@H]1CSSC[C@@H](C(=O)N[C@H](C(=O)N[C@@H](Cc2c[nH]c3ccccc23)C(=O)N[C@@H](CCCNC(=N)N)C(=O)N[C@@H](CC(=O)O)C(N)=O)[C@@H](C)O)NC(=O)[C@H]([C@@H](C)O)NC(=O)[C@H](CCCCN)NC(=O)[C@@H](Cc2c[nH]c3ccccc23)NC(=O)[C@H](Cc2ccccc2)NC1=O [SEQ ID No. 2, H-Arg-Arg-Leu-Phe-[Cys-Phe-D-Trp-Lys-Thr-Cys]-Thr-Trp-Arg-Asp-NH2] (H-RRLFCF[dW]KTCTWRD-NH2; disulfide 5-10)
activity at 150 µM (SSTR2; Max Dose 150000 nM): 99.1%
pEC50 (SSTR2): 7.45

CC(C)C[C@H](NC(=O)CNC(=O)c1cc(Cl)ccc1Cl)B1OC(=O)C(CC(=O)O)(CC(=O)O)O1 [Ixazomib Citrate]
T/C [1, 2]: 38.38%
TGI [1, 2]: 71.76%
Tumor Volume (Mean ± SEM) ([1]; Day 0): 109 ± 6 mm3
Tumor Volume (Mean ± SEM) ([1]; Day 4): 245 ± 23 mm3
Tumor Volume (Mean ± SEM) ([1]; Day 7): 337 ± 25 mm3
Tumor Volume (Mean ± SEM) ([1]; Day 11): 452 ± 59 mm3
Tumor Volume (Mean ± SEM) ([1]; Day 14): 586 ± 100 mm3
Tumor Volume (Mean ± SEM) ([1]; Day 18): 781 mm3 and 781 ± 177 mm3
Tumor Volume (Mean ± SEM) ([1]; Day 21): 925 ± 226 mm3
Tumor Volume (Mean ± SEM) ([1]; Day 25): 1,139 ± 271 mm3
Tumor Volume (Mean ± SEM) ([1]; Day 28): 1,365 ± 331 mm3
